Measured values: US9981923B2, “1,2,3 Triazole antifungal agents and preparation thereof” (COUNCIL OF SCIENTIFIC & INDUSTRIAL RESEARCH, priority 2014, dated 2018)
≈ marks a conversion by molar mass, not a printed value. Like-named read-outs stand apart in the source and are kept apart here.

How the values were obtained:
[1] = system: Aspergillus fumigatus MCC 1046; experiment: Antifungal susceptibility by microbroth dilution (CLSI); type: cell-based; settings: Table 1, 48 h, >90% inhibition of growth
Outline: (§1)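 CLSI microbroth dilution in RPMI/YPG with twofold serial compound dilutions over 1-128 μg/ml. Inoculum ~2×10^3 cfu/mL log-phase yeast or 2×10^4 spores/mL for filamentous fungi. Growth read as absorbance at 600 nm after 48 h.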

[2] = system: Aspergillus niger ATCC 10578; experiment: as above; type: cell-based; settings: Table 1, 48 h, >90% inhibition of growth
Outline: as §1

[3] = system: Candida albicans ATCC 10231; experiment: as above; type: cell-based; settings: Table 1, 48 h, >90% inhibition of growth
Outline: as §1

[4] = system: Candida albicans ATCC 24433; experiment: as above; type: cell-based; settings: Table 1, 48 h, >90% inhibition of growth, range 1-128 μg/ml
Outline: as §1

[5] = system: Candida glabrata NCYC 388; experiment: as above; type: cell-based; settings: Table 1, 48 h, >90% inhibition of growth
Outline: as §1

[6] = system: Cryptococcus neoformans ATCC 34664; experiment: as above; type: cell-based; settings: Table 1, 48 h, >90% inhibition of growth
Outline: as §1

ergosterol = experiment: Effect of the compounds on sterol profile (spectrophotometric ergosterol quantitation); type: cell-based, C. albicans ATCC 24433; settings: for ergosterol depletion (sterol profile, height of absorbance peaks 220-300 nm): C. albicans ATCC 24433, 24 h, 0.5 MIC and MIC of the lead compounds
Method: Inhibition of lanosterol 14 α-demethylase by azoles results in depletion of ergosterol. The depletion can be quantified by spectrophotometry. Briefly, Overnight grown C. albicans ATCC 24433 (1×10^6 cfu/ml) cells were inoculated in a series of flasks containing 50 ml of Yeast extract Peptone Glucose (YPG) broth containing […] of fluconazole per ml as well as 0.5 MIC and MIC of the lead compounds. The cultures were incubated for 24 h with shaking at 30° C. The stationary-phase cells were harvested by centrifugation […] and washed once with sterile distilled water. The net wet weight of the cell pellet was determined. Three milliliters of 25% alcoholic potassium hydroxide solution (25 g of […] and 35 ml of sterile distilled water, brought to 100 ml with 100% ethanol), was added to 125 mg of pellet and vortex mixed for 1 min. Cell suspensions were transferred to sterile borosilicate glass screw-cap tubes and were incubated in an 85° C. water bath for 1 h. Following incubation, tubes were allowed to cool to room temperature. Sterols were then extracted by addition of a mixture of 1 ml of sterile distilled water and 3 ml of n-heptane followed by vigorous vortex mixing for 3 min. The heptane layer was transferred to a clean borosilicate glass screw-cap tube. The sterol extract was scanned spectrophotometrically between 220 and 300 nm with a Spectrophotometer.

[7] = system: reactive oxygen species (ROS); experiment: ROS production using dichlorofluorescin diacetate dye; type: cell-based; settings: C. albicans ATCC 24433, dichlorofluorescin diacetate dye
Method: Apart from lanosterol 14 a-demethylase inhibition, few azoles like miconazole are known to exert their antifungal action by reactive oxygen species (ROS) generation. Therefore ROS production in C. albicans ATCC 24433 was evaluated for these compounds by using dichlorofluorescin diacetate dye. […] ROS can damage a wide range of molecules, including nucleic acids, proteins and lipids, can cause apoptosis, necrotic death and with this wide range of targets it is difficult to determine which events lead to loss of viability of cells following damage.

pathogenic fungi = experiment: Antifungal activity, overall assessment of the microbroth dilution results; type: cell-based; settings: based on the MIC results
Method: The synthesized compounds were evaluated for antifungal susceptibility by microbroth dilution method according to the recommendations of the Clinical Laboratory Standards Institute (CLSI 2008). Briefly, appropriate amount of compounds were dissolved in dimethyl sulfoxide to get 100× final strength. The stock was then diluted 1:50 in RPMI/YPG medium and 200 μl from this was added to the first row of a 96-well microtitre plate. The compounds were serially diluted two fold in successive wells to get a range of 1-128 μg/ml. Fungal yeast cells (˜2×10^3 cfu/mL), freshly grown in YPG broth in logarithmic phase, were suspended in the medium and inoculated (100 μl) in the wells of the plate. For filamentous fungi, 2×10^4 spores/mL were added. The microtitre plate was incubated for 48 h, and the absorbance was measured at 600 nm by using microtitre plate reader to assess cell growth.

[8] = Aspergillus fumigatus, MCC1046, read-out: MIC
[9] = Aspergillus niger, ATCC10578, read-out: MIC
[10] = Candida albicans, ATCC10231, read-out: MIC
[11] = Candida albicans, ATCC24433, read-out: MIC
[12] = Nakaseomyces glabratus, NCYC388, read-out: MIC
[13] = Cryptococcus neoformans, ATCC34664, read-out: MIC

`Cc1cc(C)cc(C(O)c2cn(-c3ccc(Cl)cc3O)nn2)c1` (stereo not drawn) [Compound 1ab, 5-Chloro-2-(4-((3,5-dimethylphenyl)(hydroxy)methyl)-1H-1,2,3-triazol-1-yl)phenol] was tested, and the MIC [1, 8] was 32 µg/mL (≈ 97 µM), the MIC [2, 9] was > 128 µg/mL and the MIC [3, 10] was 32 µg/mL (≈ 97 µM). It also gave an MIC [4, 11] of 32 µg/mL (≈ 97 µM), an MIC [5, 12] of 32 µg/mL (≈ 97 µM) and an MIC [6, 13] of 32 µg/mL (≈ 97 µM). The “ergosterol depletion (sterol profile, height of absorbance peaks 220-300 nm)” value (ergosterol) was “no ergosterol depletion was observed”, the ROS generation [7] was “dose dependent increase in ROS generation” and the “antifungal activity, overall assessment” value (pathogenic fungi) was “promising molecules”.

`CC(O)(Cc1cn(-c2cc(Cl)ccc2O)nn1)c1ccccc1` (stereo not drawn) [Compound 2fa, 4-Chloro-2-(4-(2-hydroxy-2-phenylpropyl)-1H-1,2,3-triazol-1-yl)phenol] was tested, and the MIC [1, 8] was 8 µg/mL (≈ 24.3 µM), the MIC [2, 9] was > 128 µg/mL and the MIC [3, 10] was 16 µg/mL (≈ 48.5 µM). The MIC [4, 11] was 16 µg/mL (≈ 48.5 µM), the MIC [5, 12] was 8 µg/mL (≈ 24.3 µM) and the MIC [6, 13] was 16 µg/mL (≈ 48.5 µM). For the same compound, the ROS generation [7] was “dose dependent increase in ROS generation” and the “antifungal activity, overall assessment” value (pathogenic fungi) was “promising molecules”.

With `CCC(O)(c1ccccc1)c1cn(-c2cc(Cl)ccc2O)nn1` (stereo not drawn) [Compound 1da] the MIC [1] was >128 µg/mL, the MIC [2] was >128 µg/mL and the MIC [3] was 16 µg/mL (≈ 48.5 µM). The MIC [4] was 16 µg/mL (≈ 48.5 µM), the MIC [5] was 8 µg/mL (≈ 24.3 µM) and the MIC [6] was 16 µg/mL (≈ 48.5 µM). For the same compound, the “ergosterol depletion (sterol profile, height of absorbance peaks 220-300 nm)” value (ergosterol) was “no ergosterol depletion was observed”, the “inhibition of lanosterol 14 α-demethylase enzyme (concluded from ergosterol depletion)” value (ergosterol; C. albicans ATCC 24433 sterol profile) was “potent inhibitors” and the ROS generation [7] was “dose dependent increase in ROS generation”. For the same compound, the “antifungal activity, overall assessment” value (pathogenic fungi) was “promising molecules”.
